# Reference: ChEMBL document CHEMBL5653631, “A Potent and Selective ULK1 Inhibitor Suppresses Autophagy and Sensitizes Cancer Cells to Nutrient Stress” (iScience, 2018)
# Columns and labels:
# [1] = molecular target: Serine/threonine-protein kinase PAK 5 (Homo sapiens) (UniProt Q9P286); experiment: Inhibition of human recombinant PAK5 at 40 nM related to control ULK1
# [2] = molecular target: T1, Serine/threonine-protein kinase Nek11 (Homo sapiens) (UniProt Q8NG66); experiment: Inhibition of human recombinant NEK11 at 500 nM related to control ULK1
# T1 sequence (whole entry): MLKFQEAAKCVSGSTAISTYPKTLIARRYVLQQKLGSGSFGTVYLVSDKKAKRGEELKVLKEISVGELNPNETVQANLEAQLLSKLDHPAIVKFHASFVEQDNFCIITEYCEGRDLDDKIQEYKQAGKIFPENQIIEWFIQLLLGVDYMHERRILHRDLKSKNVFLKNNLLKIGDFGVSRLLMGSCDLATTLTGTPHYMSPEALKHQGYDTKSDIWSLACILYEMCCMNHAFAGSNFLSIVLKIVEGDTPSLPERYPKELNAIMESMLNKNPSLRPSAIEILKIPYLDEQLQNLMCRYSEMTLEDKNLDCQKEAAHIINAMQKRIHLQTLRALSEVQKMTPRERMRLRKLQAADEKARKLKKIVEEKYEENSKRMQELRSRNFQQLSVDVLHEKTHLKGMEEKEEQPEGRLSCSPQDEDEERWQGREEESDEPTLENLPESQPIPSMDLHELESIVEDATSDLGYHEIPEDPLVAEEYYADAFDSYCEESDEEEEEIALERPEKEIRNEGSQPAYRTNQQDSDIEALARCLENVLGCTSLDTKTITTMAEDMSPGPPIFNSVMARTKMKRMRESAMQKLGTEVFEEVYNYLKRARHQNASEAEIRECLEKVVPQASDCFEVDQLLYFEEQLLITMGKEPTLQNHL
# Homo sapiens = organism: Homo sapiens; experiment: Inhibition of human recombinant ABL at 500 nM related to control ULK1
# [3] = molecular target: T2, Ephrin type-A receptor 1 (Homo sapiens) (UniProt P21709); experiment: Inhibition of human recombinant EphA1 at 15 nM related to control ULK1
# T2 sequence (whole entry): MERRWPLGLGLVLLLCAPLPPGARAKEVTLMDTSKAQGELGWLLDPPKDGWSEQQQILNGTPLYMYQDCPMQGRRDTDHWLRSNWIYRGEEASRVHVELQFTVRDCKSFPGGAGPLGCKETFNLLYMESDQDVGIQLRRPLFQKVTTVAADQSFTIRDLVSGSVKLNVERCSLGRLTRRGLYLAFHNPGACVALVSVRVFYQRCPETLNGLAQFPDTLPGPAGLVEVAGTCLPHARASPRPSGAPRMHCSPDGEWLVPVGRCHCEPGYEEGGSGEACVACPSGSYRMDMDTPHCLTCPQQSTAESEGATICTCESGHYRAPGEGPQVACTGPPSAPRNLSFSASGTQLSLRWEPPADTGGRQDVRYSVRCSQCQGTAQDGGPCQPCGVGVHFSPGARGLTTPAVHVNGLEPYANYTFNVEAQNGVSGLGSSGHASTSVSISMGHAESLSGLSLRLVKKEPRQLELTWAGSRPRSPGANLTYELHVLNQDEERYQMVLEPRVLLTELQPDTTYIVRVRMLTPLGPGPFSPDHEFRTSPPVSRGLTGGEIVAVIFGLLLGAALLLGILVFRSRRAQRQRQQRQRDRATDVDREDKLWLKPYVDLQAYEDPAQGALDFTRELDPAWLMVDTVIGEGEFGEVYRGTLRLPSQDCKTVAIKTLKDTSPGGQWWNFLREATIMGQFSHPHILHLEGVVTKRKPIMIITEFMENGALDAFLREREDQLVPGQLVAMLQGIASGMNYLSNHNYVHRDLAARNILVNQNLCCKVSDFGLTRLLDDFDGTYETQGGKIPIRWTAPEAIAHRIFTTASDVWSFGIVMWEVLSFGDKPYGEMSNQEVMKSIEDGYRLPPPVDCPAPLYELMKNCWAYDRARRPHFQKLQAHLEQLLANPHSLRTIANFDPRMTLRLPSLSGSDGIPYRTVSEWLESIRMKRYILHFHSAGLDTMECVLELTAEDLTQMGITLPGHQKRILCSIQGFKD
# [4] = molecular target: T3, Cytoplasmic tyrosine-protein kinase BMX (Homo sapiens) (UniProt P51813); experiment: Inhibition of human recombinant BMX at 15 nM related to control ULK1
# T3 sequence (whole entry): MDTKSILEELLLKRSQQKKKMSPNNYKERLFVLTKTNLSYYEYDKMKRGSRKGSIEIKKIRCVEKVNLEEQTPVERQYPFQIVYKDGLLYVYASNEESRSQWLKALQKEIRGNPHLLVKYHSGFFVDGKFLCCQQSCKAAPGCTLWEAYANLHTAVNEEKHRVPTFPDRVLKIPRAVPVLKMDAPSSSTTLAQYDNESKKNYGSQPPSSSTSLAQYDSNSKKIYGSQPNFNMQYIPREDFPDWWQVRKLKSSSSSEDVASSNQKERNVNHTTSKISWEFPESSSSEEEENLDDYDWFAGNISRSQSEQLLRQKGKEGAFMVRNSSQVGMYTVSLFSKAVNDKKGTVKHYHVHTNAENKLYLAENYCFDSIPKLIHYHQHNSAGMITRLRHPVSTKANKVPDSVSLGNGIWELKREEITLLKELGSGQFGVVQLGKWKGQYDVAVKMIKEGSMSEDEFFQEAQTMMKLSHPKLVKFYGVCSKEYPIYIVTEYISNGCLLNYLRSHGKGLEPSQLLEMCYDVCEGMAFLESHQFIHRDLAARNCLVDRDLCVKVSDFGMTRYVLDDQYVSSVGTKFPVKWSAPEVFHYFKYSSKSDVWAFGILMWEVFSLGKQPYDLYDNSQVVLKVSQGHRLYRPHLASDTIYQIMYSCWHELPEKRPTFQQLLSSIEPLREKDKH
# Chain of Serine/threonine-protein kinase PAK 5 (Homo sapiens) (Q9P286 whole entry, looked up): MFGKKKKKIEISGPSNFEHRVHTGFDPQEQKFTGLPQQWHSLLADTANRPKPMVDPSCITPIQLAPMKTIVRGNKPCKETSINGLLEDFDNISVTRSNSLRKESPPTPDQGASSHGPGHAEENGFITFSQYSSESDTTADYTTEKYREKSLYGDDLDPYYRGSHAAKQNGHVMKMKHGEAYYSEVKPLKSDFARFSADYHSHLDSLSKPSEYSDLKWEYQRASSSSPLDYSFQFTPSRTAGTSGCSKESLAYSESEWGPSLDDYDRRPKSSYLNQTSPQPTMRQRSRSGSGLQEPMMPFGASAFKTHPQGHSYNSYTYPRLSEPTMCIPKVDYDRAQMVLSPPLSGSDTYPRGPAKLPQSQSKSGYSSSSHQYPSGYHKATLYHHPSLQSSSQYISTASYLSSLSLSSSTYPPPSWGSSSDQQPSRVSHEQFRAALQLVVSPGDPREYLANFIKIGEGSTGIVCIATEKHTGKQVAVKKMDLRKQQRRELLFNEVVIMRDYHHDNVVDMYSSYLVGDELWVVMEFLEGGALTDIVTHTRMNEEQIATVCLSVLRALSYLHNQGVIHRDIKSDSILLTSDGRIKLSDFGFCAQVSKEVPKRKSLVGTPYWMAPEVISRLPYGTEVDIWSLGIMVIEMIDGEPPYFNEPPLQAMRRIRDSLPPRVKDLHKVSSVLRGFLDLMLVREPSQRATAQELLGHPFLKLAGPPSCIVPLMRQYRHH
smiles,measurement,setting,value
O=C(N[C@@H](C1CC1)C(F)(F)F)c1cc(-c2cnn3cc(-c4ccc(F)cc4)cnc23)cs1,fold change (FC),[1],0
CNC(=O)c1ccccc1Oc1nc(Nc2cc(OC)c(OC)c(OC)c2)ncc1Br,fold change (FC),[2],0.11
same,fold change (FC),Homo sapiens,0.19
CC(C)[C@H](NC(=O)c1cc(-c2cnn3cc(-c4ccc(OCCN5CCCCC5)cc4)cnc23)cs1)C(F)(F)F,fold change (FC),[3],0
same,fold change (FC),[4],0.07
